Consider two substances from patent publication US6534503B1, “Melanocortin receptor-3 ligands to treat sexual dysfunction” (Lion Bioscience AG, priority 1998, dated 2003).

One test concerns Sprague-Dawley rats. Nature of the test: Association of MC-3 with erectile response: HP-228 IP with MC-3-specific antagonist ICV in rats. The format is in vivo. Particulars: rat, HP-228 1.8 mg/kg IP, PBS ICV (no MC-3 antagonist), n=5. On the procedure:
Sprague-Dawley rats (n=5) received 1.8 mg/kg HP-228 or PBS via IP injection. The rats also received via ICV injection a dose of PBS or MC-3-specific antagonist at 10 μg/5 μl. […] After administration, the rats were observed as described above. All rats received an ICV injection followed by an IP injection 5 to 10 minutes later.
In the negative control rats, receiving only PBS, 0.3 erections per hour were observed. In the positive control rats, receiving HP-228 but no MC-3 antagonist, 3.8 erections per hour were observed.

For test [1], the system named is Adult male Sprague-Dawley rats. Nature of the test: Dose-response of HP-228 for inducing erections in rats. Format: in vivo. The following applies: rat, IP. On the procedure: This example describes a dose-response correlation for using HP-228 to induce erections in rats.
(§1) Adult male Sprague-Dawley rats weighing 220 to 250 g or adult male C57/BL6 mice (Harlan Laboratories; Indianapolis Ind.) were injected intraperitoneally (IP) with 1 ml/kg body weight HP-228 solution or PBS as a negative control. Concentrations of HP-228 were 0.45, 0.9, 1.8, 3.6 and 7.2 mg/ml/kg (n=4 to 6 animals). The animals were allowed 10 minutes to acclimate to the surroundings before observation. The animals were then observed for 60 minutes for penile erections not induced by grooming. Yawning, stretching, grooming behaviors were also recorded.

Test [2] has as its system male Sprague-Dawley rats. Nature of the test: Effect of oxytocin receptor antagonist vasotocin on erectile effects in rats. Format: in vivo. The following applies: rat. The source says: (§2) In both examples, male Sprague-Dawley rats, about 200 to 225 g, were acclimated for 5 days in a reverse light:dark cycle room (dark 10 a.m. to 10 p.m.) before being aseptically ICV cannulated. Rats with indwelling ICV cannulae were housed one per cage. After surgery, 4 days were allowed for recovery and 10 days total were allowed for adaptation to the light cycle. Rats were caged individually after surgery and body weights at the time of treatment averaged 250 g. Otherwise, the procedure is essentially the same as in Example II.
Treatment was between 10 a.m. and 1 p.m. […] Vasotocin (Peninsula Laboratories, San Carlos Calif.) was administered ICV at 100 ng/rat. Oxytocin (Sigma, St. Louis Mo.) was administered ICV at 30 ng/rat (10 μl/rat PBS). Ten minutes later, IP injections of HP-228 or vehicle were given. HP-228 was administered IP at 2 mg/kg in 3 ml/kg PBS. One group of animals received ICV injections of vasotocin and oxytocin ICV injections of 5 μl/rat each at double concentrations for a total of 10 μl injected ICV. In this group, the rats received vasotocin first, followed by oxytocin.

In the next test the test system is Rats. Kind of test: HP-228-mediated erectile response with MC-3 antagonist TRG 6601 #15—2 ICV in rats. The format is in vivo. The following applies: rat, PBS ICV, HP-228 2 mg/kg/ml IP. On the procedure:
Rats were obtained and cannulated essentially as described in Example VII. Rats received a 10 μl injection ICV containing antagonist “TRG 6601 #15—2” or vehicle alone. The compound was administered as a 1 mg/ml solution in 5% EtOH/PBS at a dose of […]. Five minutes later, the rats were injected IP with either PBS (1 ml/kg) or HP-228 (2 mg/kg/ml). The animals were observed as in Example VII. Erections per hour and rate of animals responding are shown: […]

The test system of the next test is Adult male rats. Kind of test: Induction of penile erections in rats after intraperitoneal injection, 60 minute observation. Format: in vivo. The following applies: IP injection of compound alone, 60 min observation, n=6. As for the experimental part:
Adult male rats were housed 2 to 3 per cage and were acclimated to the standard vivarium light cycle (12 hr. light, 12 hr. dark), rat chow and water for a least a week prior to testing. All experiments were performed between 9 a.m. and noon and rats were placed in cylindrical, clear plexiglass chambers during the 60 minute observation period. Mirrors were positioned below the chambers to improve viewing.
Observations began 5 minutes after an intraperitoneal injection of either saline or compound. Two observers counted the number of grooming motions, stretches, yawns and spontaneously occurring penile erections not elicited by genital grooming, and then recorded them as they occurred for a total of 60 minutes. Each observer recorded behaviors of 6 rats at the same time. The observers were unaware of the treatment and animals were tested once, with n=6 in each group. HP-228 was used as a positive control for penile erections.
By comparison, IP injection with agonist TRG 2411 #203 alone (shown below) increased the average number of erections observed to 2.7.

For test [3], the system named is male Sprague-Dawley rats. Nature of the test: Effect of dopamine receptor antagonist sulpiride on erectile effects in rats. The format is in vivo. The following applies: rat.
Excerpt: as §2
Treatment was between 9:30 a.m. and noon. Each animal received an initial IP injection of vehicle (3 ml/kg PBS) or sulpiride. Sulpiride (Sigma) was administered IP at 50 mg/kg (6 ml/kg IP). Ten minutes later, the animals received a final IP injection of HP-228 or vehicle or a SC injection of apomorphine. HP-228 was administered IP at 2 mg/kg in 3 ml/kg PBS. Apomorphine (Sigma) was administered SC at 0.1 mg/kg (1 ml/kg sterile water).

In a further test the test system is C57/BL6 mice. Nature of the test: Dose-response of HP-228 for inducing erections in mice. Format: in vivo. The following applies: mouse, IP. As for the experimental part:
as §1
This example describes a dose-response correlation for using HP-228 to induce erections in mice (n=3 to 5). Age-matched C57/BL6 mice (Harlan Laboratories; Indianapolis Ind.) weighing 20 to 25 g were injected (100 μl/mouse) intraperitoneally essentially as described above and observed.

The test system of another test is human subjects. The following applies: pilot phase I clinical studies (Dorr et al. 1996; Wessells et al. 1998); cited from earlier work.
The mark [4] stands for this setting: single agent plus PBS: oxytocin 30 ng/rat ICV, HP-228 2 mg/kg IP, vasotocin 100 ng/rat ICV.
The mark [5] stands for this setting: single agent plus PBS: apomorphine 0.1 mg/kg SC, HP-228 2 mg/kg IP, sulpiride 50 mg/kg IP.

On to “Ac-Nle-Gln-His-(D)Phe-Arg-(D)Trp-Gly-NH2 [HP-228]”, for which the erections per hour with Sprague-Dawley rats stood at 3.8 erections per hour; in the test with male Sprague-Dawley rats [2] (setting [4]), 4.9 erections per hour; in the test on Rats, 4.7 erections per hour; in the test with male Sprague-Dawley rats [3] (setting [5]), 7.3 erections per hour. Further, the avg. erections observed/hour came to 2.80 erections/hour in test [1] (0.45 mg/ml/kg HP-228, 60 min observation); 2.60 erections/hour in test [1] (0.9 mg/ml/kg HP-228, 60 min observation); 3.67 erections/hour in test [1] (1.8 mg/ml/kg HP-228, 60 min observation); 7.00 erections/hour in test [1] (3.6 mg/ml/kg HP-228, 60 min observation); 5.75 erections/hour in test [1] (7.2 mg/ml/kg HP-228, 60 min observation); 3.00 erections/hour in the test with C57/BL6 mice (25 μg/mouse HP-228). In addition, the avg. erections observed/hour in the test with C57/BL6 mice (50 μg/mouse HP-228) was found to be 6.67 erections/hour; in the test with C57/BL6 mice (100 μg/mouse HP-228) it was 5.33 erections/hour; in the test with C57/BL6 mice (250 μg/mouse HP-228), 3.00 erections/hour. The “response rate, % of animals” value was 88%-100% with male Sprague-Dawley rats [2] (oxytocin and HP-228 groups); 100% in the test on male Sprague-Dawley rats [3] (apomorphine and HP-228 groups). In addition, the “responder rate of animals (rats responding out of rats)” value in the test on male Sprague-Dawley rats [2] (setting [4]) is reported as 7/8. Further, the “rate of animals responding” value is on record as 6/6 in the test with Rats and 5/5 in the test with male Sprague-Dawley rats [3] (setting [5]). Besides, the “average erections observed per rat per hour” value in the test with Adult male rats is 4.8 erections per rat per hour.
As for MELANOTAN-II, in the test on human subjects, the “penile erections in human subjects” value is reported as “cause penile erections”.
